Assay results taken from patent US10201558B2, “Compositions of selenoorganic compounds and methods of use thereof” (Alltech, Inc., priority 2014, dated 2019).

System: primary fetal rat neurons
Assay: Cell survival of primary cortical neurons (cell counts)
Assay type: cell-based
Conditions: 24 hours, Control 100 ± 1.57, mixture: 30 ppb of the element from each compound; for Viable Cell Number (Mean ± SEM, n = 6): 150 ppb selenium compound(s); for Viable Cell Number (Mean + SEM, n = 6): 150 ppb sulfur compound(s)
Procedure: For primary neurons, dissociated primary cortical neuron cultures were established from E-18 rat embryos as previously described (Lovell et al., Free Radic. Biol. Med. 2000; Lovell et al., Neurobiol. Aging 2001). Studies were carried out on cells 7 days in culture by switching to Locke's solution consisting of 1 mL of 154 mM NaCl, 5.6 mM KCl, 2.3 mM CaCl2, 1.0 mM MgCl2, 3.6 mM NaHCO3, 10 mM glucose, 5 mM HEPES (pH 7.2) with 10 mg/L gentamicin sulfate. Primary neurons were treated for 24 hours in Locke's solution with the indicated selenium and sulfur compounds in Table 5. Cell counts were performed to measure cell survival/toxicity.
The effects of the selenium and sulfur compounds, identified as components of water extracts of selenium-enriched yeast, on neuronal cell survival was also tested. Primary neurons isolated from fetal rat brain were incubated with chemically synthesized individual selenium and sulfur compounds that were identified as components of water extracts of selenium-enriched yeast (Table 5). In this case, the elemental concentration of each compound identified in Table 5 was 150 ppb and, where mixtures were used, the 150 ppb treatment was made up of 30 ppb of the element from each of the five compounds in question.

| Compound | Viable Cell Number (Mean ± SEM, n = 6) | Viable Cell Number (Mean + SEM, n = 6) |
| --- | --- | --- |
| C[Se]C[C@H](N)C(=O)O [A, L-Methylselenocysteine] | 94.45 ± 1.72 |  |
| CSC[C@H](N)C(=O)O [F, L-Methylcysteine] |  | 96.48 ± 3.89 |
| C[Se]CC[C@H](N)C(=O)O [B, L-Selenomethionine] | 90.59 ± 6.82 |  |
| CSC[C@H]1O[C@@H](n2cnc3c(N)ncnc32)[C@H](O)[C@@H]1O [Compound H, 5′-deoxy-5′-methylthioadenosine] |  | 100.24 ± 9.45 |
| CSCC[C@H](N)C(=O)O [G, L-methionine] |  | 103.84 ± 4.98 |
